What all share (assay): microbe, parasite or virus in culture
What all share (format): cell-based

Test [1] relates to influenza A virus minigenome (PB2, PB1, PA, NP; luciferase reporter) in 293T cells, RNP_Hubei. Particulars: HEK-293T, 48 h.
Test [2] deals with influenza A virus minigenome (PB2, PB1, PA, NP; luciferase reporter) in 293T cells, RNP_CAL. The conditions noted are these: HEK-293T, 48 h, read-out: RNP_CAL_EC50.
Test [3] has as its system influenza A virus minigenome (PB2, PB1, PA, NP; luciferase reporter) in 293T cells, RNP_Alaska. The conditions noted are these: HEK-293T, 48 h.

pEC50: −log10 of the molar value.

With `CN(C)C(=O)Oc1c2n(ncc1=O)[C@@H]([C@H](c1cccc(F)c1)c1cccc(F)c1F)[C@H]1CCCN1C2=O` [Example 96, (9aR,10S)-10-((R)-(2,3-difluorophenyl)(3-fluorophenyl)methyl)-3,5-dioxo-3,5,8,9,9a,10-hexahydro-7H-pyrrolo[1′,2′:4,5]pyrazino[1,2-b]pyridazin-4-yl dimethylcarbamate], the pEC50 was 6.00 to 7.00 in test [1], at most 6.00 in test [2] and at most 6.00 in test [3].

As for `O=C1c2c(O)c(=O)cnn2[C@@H]([C@@H](c2ccccc2F)c2cccc(F)c2F)[C@H]2CCCN12` [Example 28, (9aR,10S)-10-((S)-(2,3-difluorophenyl)(2-fluorophenyl)methyl)-4-hydroxy-8,9,9a,10-tetrahydro-7H-pyrrolo[1′,2′:4,5]pyrazino[1,2-b]pyridazine-3,5-dione], the pEC50 in test [1], in test [2] and in test [3] was above 7.00 throughout.

As for `O=C1c2c(O)c(=O)cnn2[C@@H]([C@@H](c2ccc(F)cc2)c2cccc(OC(F)(F)F)c2)[C@H]2CCCN12` [Example 4, (9aR,10S)-10-((S)-(4-fluorophenyl)(3-(trifluoromethoxy)phenyl)methyl)-4-hydroxy-8,9,9a,10-tetrahydro-7H-pyrrolo[1′,2′:4,5]pyrazino[1,2-b]pyridazine-3,5-dione], the figures for the pEC50 in test [1], in test [2] and in test [3] were above 7.00, above 7.00 and 6.00 to 7.00, respectively.

For `O=C1c2c(O)c(=O)cnn2[C@@H]([C@H](c2ccc(F)cc2)c2cccc(C(F)(F)F)c2)[C@H]2CCCN12` [Example 20, (9aR,10S)-10-((R)-(4-fluorophenyl)(3-(trifluoromethyl)phenyl)methyl)-4-hydroxy-8,9,9a,10-tetrahydro-7H-pyrrolo[1′,2′:4,5]pyrazino[1,2-b]pyridazine-3,5-dione], the pEC50 in test [1], in test [2] and in test [3] was 6.00 to 7.00 in each case.

On to `COCCC(=O)Oc1c2n(ncc1=O)[C@@H]([C@H](c1ccccc1)c1cccc(F)c1F)[C@H]1CCCN1C2=O` [Example 61, (9aR,10S)-10-((R)-(2,3-difluorophenyl)(phenyl)methyl)-3,5-dioxo-3,5,8,9,9a,10-hexahydro-7H-pyrrolo[1′,2′:4,5]pyrazino[1,2-b]pyridazin-4-yl 3-methoxypropanoate], for which the pEC50 in test [1], in test [2] and in test [3] was above 7.00 each time.

Regarding `O=C(Oc1c2n(ncc1=O)[C@@H]([C@H](c1ccccc1)c1cccc(F)c1F)[C@H]1CCCN1C2=O)C1CCOCC1` [Example 75, (9aR,10S)-10-((R)-(2,3-difluorophenyl)(phenyl)methyl)-3,5-dioxo-3,5,8,9,9a,10-hexahydro-7H-pyrrolo[1′,2′:4,5]pyrazino[1,2-b]pyridazin-4-yl tetrahydro-2H-pyran-4-carboxylate], the pEC50 in test [1], in test [2] and in test [3] was above 7.00 each time.

For the molecule `CC(C)(C)C(=O)OCOc1c2n(ncc1=O)[C@@H]([C@H](c1ccccc1)c1cccc(F)c1F)[C@H]1CCCN1C2=O` [Example 63, (((9aR,10S)-10-((R)-(2,3-difluorophenyl)(phenyl)methyl)-3,5-dioxo-3,5,8,9,9a,10-hexahydro-7H-pyrrolo[1′,2′:4,5]pyrazino[1,2-b]pyridazin-4-yl)oxy)methyl pivalate], the pEC50 in test [1], in test [2] and in test [3] was above 7.00 in each case.

In the case of `CCOC(=O)Oc1c2n(ncc1=O)[C@@H]([C@H](c1ccccc1)c1cccc(F)c1F)[C@H]1CCCN1C2=O` [Example 53, (9aR,10S)-10-((R)-(2,3-difluorophenyl)(phenyl)methyl)-3,5-dioxo-3,5,8,9,9a,10-hexahydro-7H-pyrrolo[1′,2′:4,5]pyrazino[1,2-b]pyridazin-4-yl ethyl carbonate], the pEC50 in test [1], in test [2] and in test [3] was above 7.00 throughout.

As for `CCN(CC)C(=O)Oc1c2n(ncc1=O)[C@@H]([C@H](c1ccccc1)c1cccc(F)c1F)[C@H]1CCCN1C2=O` [Example 71, (9aR,10S)-10-((R)-(2,3-difluorophenyl)(phenyl)methyl)-3,5-dioxo-3,5,8,9,9a,10-hexahydro-7H-pyrrolo[1′,2′:4,5]pyrazino[1,2-b]pyridazin-4-yl diethylcarbamate], the pEC50 in test [1], in test [2] and in test [3] was 6.00 to 7.00 in each case.

In the case of `CC(C)(C)OC(=O)OCOc1c2n(ncc1=O)[C@@H]([C@H](c1ccccc1)c1cccc(F)c1F)[C@H]1CCCN1C2=O` [Example 55, tert-butyl ((((9aR,10S)-10-((R)-(2,3-difluorophenyl)(phenyl)methyl)-3,5-dioxo-3,5,8,9,9a,10-hexahydro-7H-pyrrolo[1′,2′:4,5]pyrazino[1,2-b]pyridazin-4-yl)oxy)methyl) carbonate], the pEC50 was above 7.00 in test [1], 6.00 to 7.00 in test [2] and 6.00 to 7.00 in test [3].

With `COC(=O)c1ccccc1C(=O)Oc1c2n(ncc1=O)[C@@H]([C@H](c1ccccc1)c1cccc(F)c1F)[C@H]1CCCN1C2=O` [Example 70, (9aR,10S)-10-((R)-(2,3-difluorophenyl)(phenyl)methyl)-3,5-dioxo-3,5,8,9,9a,10-hexahydro-7H-pyrrolo[1′,2′:4,5]pyrazino[1,2-b]pyridazin-4-yl methyl phthalate], the pEC50 in test [1], in test [2] and in test [3] was above 7.00 each time.

`O=C1c2c(O)c(=O)cnn2[C@@H]([C@H](c2ccc(F)cc2)c2cccc(OC(F)(F)F)c2)[C@H]2CCCN12` [Example 22, (9aR,10S)-10-((R)-(4-fluorophenyl)(3-(trifluoromethoxy)phenyl)methyl)-4-hydroxy-8,9,9a,10-tetrahydro-7H-pyrrolo[1′,2′:4,5]pyrazino[1,2-b]pyridazine-3,5-dione]: the pEC50 in test [1], in test [2] and in test [3] was 6.00 to 7.00 in each case.

Consider `CN1CCN(C(=O)Oc2c3n(ncc2=O)[C@@H]([C@H](c2cccc(F)c2)c2cccc(F)c2F)[C@H]2CCCN2C3=O)CC1` [Example 100, (9aR,10S)-10-((R)-(2,3-difluorophenyl)(3-fluorophenyl)methyl)-3,5-dioxo-3,5,8,9,9a,10-hexahydro-7H-pyrrolo[1′,2′:4,5]pyrazino[1,2-b]pyridazin-4-yl 4-methylpiperazine-1-carboxylate], for which the pEC50 was 6.00 to 7.00 in test [1], at most 6.00 in test [2] and at most 6.00 in test [3].

In the case of `Cc1c(F)cccc1[C@@H](c1cccc(F)c1)[C@H]1[C@H]2CCCN2C(=O)c2c(O)c(=O)cnn21` [Example 15, (9aR,10S)-10-((R)-(3-fluoro-2-methylphenyl)(3-fluorophenyl)methyl)-4-hydroxy-8,9,9a,10-tetrahydro-7H-pyrrolo[1′,2′:4,5]pyrazino[1,2-b]pyridazine-3,5-dione], the pEC50 in test [1], in test [2] and in test [3] was above 7.00 in each case.

As for `CC(C)OC(=O)OCOc1c2n(ncc1=O)[C@@H]([C@H](c1ccccc1)c1cccc(F)c1F)[C@H]1CCCN1C2=O` [Example 52, (((9aR,10S)-10-((R)-(2,3-difluorophenyl)(phenyl)methyl)-3,5-dioxo-3,5,8,9,9a,10-hexahydro-7H-pyrrolo[1′,2′:4,5]pyrazino[1,2-b]pyridazin-4-yl)oxy)methyl isopropyl carbonate], the pEC50 in test [1], in test [2] and in test [3] was above 7.00 in each case.

These data come from patent US12071441B2, “10-(di(phenyl)methyl)-4-hydroxy-8,9,9A,10-tetrahydro-7H-pyrrolo[1′,2′:4,5]pyrazino[1,2-b]pyridazine-3,5-dione derivatives and related compounds as inhibitors of the orthomyxovirus replication for treating influenza” (Novartis AG, priority 2018, dated 2024).
